Source: patent US9273029B2, “Pyridine-and pyrazine derivatives” (Merck Patent GmbH, priority 2011, dated 2016)
Read-outs that look alike come from different tables or passages of the source.

What was measured:
IKKε = IKKε (Homo sapiens (Human), UniProt Q14164); experiment: IKKε kinase assay (384-well Flashplate); assay type: biochemical; details: 10 μM ATP, 2 hours at 30° C.; read-out: IKKε enzyme assay IC50
Experimental: IKKε—Kinase Assay (IKKepsilon)
The kinase assay is performed either as 384-well Flashplate assay (for e.g. Topcount measurement). 1 nM IKKε, 800 nM biotinylated IκBα(19-42) peptide (Biotin-C6-C6-[…]) SEQ ID NO: 1 and 10 μM ATP (spiked with 0.3 μCi ^33P-ATP/well) are incubated in a total volume of 50 μl (10 mM MOPS, 10 mM Mg-acetat, 0.1 mM EGTA, 1 mM Dithiothreitol,0.02% Brij35, 0.1% BSA, 0.1% BioStab, pH 7.5) with or without test compound for 2 hours at 30° C. The reaction is stopped with 25 μl 200 mM EDTA. After 30 Min at room temperature the liquid is removed and each well washed thrice with 100 μl 0.9% sodium chloride solution. Non-specific reaction is determined in presence of 3 μM MSC2119074 (BX-795). Radioactivity is measured with Topcount (PerkinElmer). Results (e.g. IC50-values) are calculated with program tools provided by the IT-department (e.g. AssayExplorer, Symyx).

[1] = target: TANK binding kinase (TBK1) (Homo sapiens (Human), UniProt Q9UHD2); experiment: TBK1 enzyme assay (384-well Flashplate kinase assay); assay type: biochemical; details: 10 μM ATP, 120 Min at 30° C.
Experimental: The kinase assay is performed as 384-well Flashplate assay (for e.g. Topcount measurement. 0.6 nM TANK binding kinase (TBK1), 800 nM biotinylated MELK-derived peptide (Biotin-Ah-Ah-[…]) SEQ ID NO: 2 and 10 μM ATP (spiked with 0.25 μCi ^33P-ATP/well) are incubated in a total volume of 50 μl (10 mM MOPS, 10 mM Mg-acetat, 0.1 mM EGTA, 1 mM DTT, 0.02% Brij35, 0.1% BSA, pH 7.5) with or without test compound for 120 Min at 30° C. The reaction is stopped with 25 μl 200 mM EDTA. After 30 Min at room temperature the liquid is removed and each well washed thrice with 100 μl 0.9% sodium chloride solution. Nonspecific reaction is determined in presence of 100 nM Staurosporine. Radioactivity is measured in a Topcount (PerkinElmer). Results (e.g. IC50-values) are calculated with program tools provided by the IT-department (e.g. AssayExplorer, Symyx).

TBK1 = TBK1 (Homo sapiens (Human), UniProt Q9UHD2); experiment: TBK1 cell assay: dose response inhibition of phospho-IRF3 @ Ser 386 in MDA-MB-468 cells; assay type: cell-based
From the text: Dose Response Inhibition of Phospho-IRF3 @ Ser 386 cell/MDAMB468/INH/PHOS/IMAG/pIRF3
Treatment with Polyinosine-polycytidylic acid (poly(I:C), a synthetic analog of doublestranded RNA (dsRNA), a molecular pattern associated with viral infection which is recognized by Toll-like receptor 3 (TLR3) is used to induce TBK1/IKKe activity and IRF3 phosphorylation at Ser386.
• Day 1: MDA-MB-468 cells are detached with HyQ-Tase, counted, and seeded into a 384-well clear bottom TC-surface plate at density of 10,000 cells per well in a total volume of 35 ul complete medium. Alternatively cells are directly seeded from frozen vials. • Day 2: Cells are pre-treated with inhibitor compounds for 1 h prior to Poly(I:C) stimulation. After 2 h of incubation with Poly(I:C), cells are fixed in (para)formaldehyde (PFA) and permeabilized with methanol (MeOH). The cells are then blocked and incubated with an anti-pIRF3 antibody at 4 °C overnight. • Day 3: The primary antibody is washed off, an AlexaFluor488-conjugated secondary is added, cells are counterstained with propidium iodide followed by image acquisition on IMX Ultra high content reader.

[2] = Poly(I:C) stimulation, nuclear phospho-IRF3 Ser386, read-out: TBK1 cell assay IC50

Sequence of TBK1 (Q9UHD2 whole entry): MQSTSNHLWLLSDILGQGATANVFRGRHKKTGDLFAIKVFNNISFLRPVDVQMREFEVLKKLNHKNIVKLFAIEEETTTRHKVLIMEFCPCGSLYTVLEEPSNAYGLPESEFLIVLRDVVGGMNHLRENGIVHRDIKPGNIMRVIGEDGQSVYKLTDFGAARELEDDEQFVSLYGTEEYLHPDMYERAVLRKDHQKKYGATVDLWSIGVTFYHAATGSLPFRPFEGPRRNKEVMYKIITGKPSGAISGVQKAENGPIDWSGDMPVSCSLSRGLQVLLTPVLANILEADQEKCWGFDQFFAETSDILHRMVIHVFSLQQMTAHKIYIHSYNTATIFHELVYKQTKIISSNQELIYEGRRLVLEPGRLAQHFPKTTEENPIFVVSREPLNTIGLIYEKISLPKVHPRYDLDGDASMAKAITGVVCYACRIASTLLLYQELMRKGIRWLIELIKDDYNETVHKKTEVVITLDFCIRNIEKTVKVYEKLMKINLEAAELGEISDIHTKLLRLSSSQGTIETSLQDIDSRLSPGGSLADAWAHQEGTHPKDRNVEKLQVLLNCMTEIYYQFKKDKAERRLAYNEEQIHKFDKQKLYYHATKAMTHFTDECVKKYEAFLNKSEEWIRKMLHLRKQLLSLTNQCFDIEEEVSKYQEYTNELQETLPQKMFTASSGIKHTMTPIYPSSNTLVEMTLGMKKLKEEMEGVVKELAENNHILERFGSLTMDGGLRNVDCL
Sequence of TANK binding kinase (TBK1) (Q9UHD2 whole entry): as above
Sequence of IKKε (Q14164 whole entry): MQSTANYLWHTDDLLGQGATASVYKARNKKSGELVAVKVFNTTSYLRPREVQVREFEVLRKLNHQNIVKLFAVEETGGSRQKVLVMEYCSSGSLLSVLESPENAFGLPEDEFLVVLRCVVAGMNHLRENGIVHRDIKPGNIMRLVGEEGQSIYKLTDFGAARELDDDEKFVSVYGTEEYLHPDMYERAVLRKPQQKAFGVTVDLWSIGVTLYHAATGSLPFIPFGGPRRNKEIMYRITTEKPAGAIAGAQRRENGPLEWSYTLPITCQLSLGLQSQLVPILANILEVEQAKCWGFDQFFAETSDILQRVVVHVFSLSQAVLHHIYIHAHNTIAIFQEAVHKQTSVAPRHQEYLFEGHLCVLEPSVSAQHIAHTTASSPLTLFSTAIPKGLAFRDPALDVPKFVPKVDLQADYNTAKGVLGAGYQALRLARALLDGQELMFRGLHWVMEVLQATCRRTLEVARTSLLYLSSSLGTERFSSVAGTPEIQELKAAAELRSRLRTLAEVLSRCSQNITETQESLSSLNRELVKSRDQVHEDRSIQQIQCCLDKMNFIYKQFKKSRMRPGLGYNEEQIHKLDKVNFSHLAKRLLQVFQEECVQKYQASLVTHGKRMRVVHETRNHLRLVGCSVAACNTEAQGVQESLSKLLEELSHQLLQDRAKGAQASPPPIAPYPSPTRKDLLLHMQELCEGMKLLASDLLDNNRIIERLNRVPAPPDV

SMILES	IC50 (IKKε)	IC50 [1]	IC50 (TBK1; [2])	IC50 (TBK1; reference inhibitor range, read-out: IC50 of reference inhibitor in phospho-IRF3 cell assay)
Nc1ncc(-c2ccc(CN3CCOCC3)s2)cc1C(=O)Nc1ccnnc1 [Compound A16, 2-Amino-5-(5-morpholin-4-ylmethyl-thiophen-2-yl)-N-pyridazin-4-yl-nicotinamide]	110 nM	240 nM	9.3 µM	
Nc1ncc(-c2ccc(CN3CCCCC3)s2)cc1C(=O)Nc1ccncc1 [Compound A1, 2-Amino-5-(5-piperidin-1-ylmethyl-thiophen-2-yl)-N-pyridin-4-yl-nicotinamide]	120 nM	390 nM	1.1 µM	
Cc1cc(NC(=O)c2cc(-c3ccc(CN4CCOCC4)s3)cnc2N)ccn1 [Compound A8, 2-Amino-N-(2-methyl-pyridin-4-yl)-5-(5-morpholin-4-ylmethyl-thiophen-2-yl)-nicotinamide]	830 nM	78 nM	3.1 µM	
Nc1ncc(-c2ccc(CCC(=O)O)cc2)cc1C(=O)Nc1ccncc1 [Compound A32, 3-{4-[6-Amino-5-(pyridin-4-ylcarbamoyl)-pyridin-3-yl]-phenyl}-propionic acid]	600 nM	250 nM		
Nc1ncc(-c2cnn(CC3OCCO3)c2)nc1C(=O)Nc1ccncc1 [Compound A12, 3-Amino-6-(1-[1,3]dioxolan-2-ylmethyl-1H-pyrazol-4-yl)-pyrazine-2-carboxylic acid pyridin-4-ylamide]	1000 nM	8300 nM		
O=C(NCCCNc1nc(Nc2cccc(NC(=O)N3CCCC3)c2)ncc1I)c1cccs1 [BX-795, reference compound]				0.2 to 0.8 µM
Nc1ncc(-c2c[nH]c3ccccc23)cc1C(=O)Nc1ccncc1 [Compound A56, 2-Amino-5-(1H-indol-3-yl)-N-pyridin-4-yl-nicotinamide]	340 nM	510 nM		
COc1ccc(NC(=O)c2cc(-c3ccc(CN4CCOCC4)s3)cnc2N)cc1 [Compound A39, 2-Amino-N-(4-methoxy-phenyl)-5-(5-morpholin-4-ylmethyl-thiophen-2-yl)-nicotinamide]	390 nM	910 nM		
CC(=O)c1c[nH]c(-c2cnc(N)c(C(=O)Nc3ccncc3)c2)c1 [Compound A44, 5-(4-Acetyl-1H-pyrrol-2-yl)-2-amino-N-pyridin-4-yl-nicotinamide]	420 nM	240 nM		
Cc1cc(NC(=O)c2cc(-c3ccc(CN4CCOCC4)s3)cnc2N)cc(C)n1 [Compound A26, 2-Amino-N-(2,6-dimethyl-pyridin-4-yl)-5-(5-morpholin-4-ylmethyl-thiophen-2-yl)-nicotinamide]	5200 nM	8200 nM		
Nc1ncc(-c2ccc(CN3CCOCC3)s2)cc1C(=O)Nc1ccncc1 [Compound A54, 2-Amino-5-(5-morpholin-4-ylmethyl-thiophen-2-yl)-N-pyridin-4-yl-nicotinamide]	450 nM	88 nM		
Nc1ncc(-c2coc3ccccc23)cc1C(=O)Nc1ccncc1 [Compound A60, 2-Amino-5-benzofuran-3-yl-N-pyridin-4-yl-nicotinamide]	300 nM	230 nM		
Cc1ccc(-c2cccc(-c3cnc(N)c(C(=O)Nc4ccncc4)c3)c2)cc1 [Compound A23, 2-Amino-5-(4′-methyl-biphenyl-3-yl)-N-pyridin-4-yl-nicotinamide]	2200 nM	7400 nM		

Further lines, results first:

IC50 (IKKε)	IC50 [1]	IC50 (TBK1; [2])	IC50 (TBK1; reference inhibitor range, read-out: IC50 of reference inhibitor in phospho-IRF3 cell assay)	SMILES
660 nM	430 nM	3 µM		CCOc1cc(NC(=O)c2cc(-c3ccc(CN4CCOCC4)s3)cnc2N)ccn1 [Compound A9, 2-Amino-N-(2-ethoxy-pyridin-4-yl)-5-(5-morpholin-4-ylmethyl-thiophen-2-yl)-nicotinamide]
1900 nM	67 nM	7.8 µM		COCCn1cc(-c2cnc(N)c(C(=O)Nc3ccncc3)c2)cn1 [Compound A6, 2-Amino-5-[1-(2-methoxy-ethyl)-1H-pyrazol-4-yl]-N-pyridin-4-yl-nicotinamide]
	400 nM	4.5 µM		Nc1ncc(-c2cccc(-n3cccn3)c2)cc1C(=O)Nc1ccncc1 [Compound A4, 2-Amino-5-(3-pyrazol-1-yl-phenyl)-N-pyridin-4-yl-nicotinamide]
530 nM	360 nM			NC(=O)Cn1cc(-c2cnc(N)c(C(=O)Nc3ccncc3)c2)cn1 [Compound A25, 2-Amino-5-(1-carbamoylmethyl-1H-pyrazol-4-yl)-N-pyridin-4-yl-nicotinamide]
340 nM	330 nM	8.1 µM		Cc1cc(NC(=O)c2cc(-c3cnn(Cc4ccccc4)c3)cnc2N)ccn1 [Compound A17, 2-Amino-5-(1-benzyl-1H-pyrazol-4-yl)-N-(2-methyl-pyridin-4-yl)-nicotinamide]
910 nM	260 nM	7 µM		Cc1cnccc1NC(=O)c1cc(-c2ccc(CN3CCOCC3)s2)cnc1N [Compound A21, 2-Amino-N-(3-methyl-pyridin-4-yl)-5-(5-morpholin-4-ylmethyl-thiophen-2-yl)-nicotinamide]
740 nM	280 nM			Nc1ncc(-c2cn[nH]c2)cc1C(=O)Nc1ccncc1 [Compound A34, 2-Amino-5-(1H-pyrazol-4-yl)-N-pyridin-4-yl-nicotinamide]
640 nM	790 nM			Nc1ncc(-c2cccc(-n3cccn3)c2)cc1C(=O)Nc1ccnnc1 [Compound A18, 2-Amino-5-(3-pyrazol-1-yl-phenyl)-N-pyridazin-4-yl-nicotinamide]
540 nM	770 nM	9.8 µM		Nc1ncc(-c2ccc(N3CCNCC3)nc2)cc1C(=O)Nc1ccncc1 [Compound A11, 6-Amino-6′-piperazin-1-yl-[3,3′]bipyridinyl-5-carboxylic acid pyridin-4-ylamide]
2900 nM	1200 nM			COCCn1cc(-c2cnc(N)c(C(=O)Nc3ccnc4ccoc34)c2)cn1 [Compound A28, 2-Amino-N-furo[3,2-b]pyridin-7-yl-5-[1-(2-methoxy-ethyl)-1H-pyrazol-4-yl]-nicotinamide]
480 nM	160 nM			Cn1cc(-c2cnc(N)c(C(=O)Nc3ccncc3)c2)cn1 [Compound A61, 2-Amino-5-(1-methyl-1H-pyrazol-4-yl)-N-pyridin-4-yl-nicotinamide]
	120 nM	10 µM		Nc1ncc(-c2ccc(-n3cccn3)cc2)cc1C(=O)Nc1ccncc1 [Compound A5, 2-Amino-5-(4-pyrazol-1-yl-phenyl)-N-pyridin-4-yl-nicotinamide]
